Assay results: US9309242B2, “Substituted pyrido[2,3-b]pyrazines as FGFR kinase inhibitors” (priority 2011, dated 2016)

Legend:
[1] = target: KDR (h) (Homo sapiens, UniProt P35968); test: KDR (VEGFR2) (enzymatic assay), TR-FRET; format: biochemical; settings: read-out: VEGFR 2 (KDR) pIC50 (converted)
In short: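 Phosphorylation of biotinylated Flt3 peptide (500 nM) by 150 ng/ml enzyme was measured at 3 μM ATP in Mn2+-containing HEPES buffer, pH 7.5, over 120 min at room temperature. Detection used Eu-anti-P-Tyr and SA-XL-665 TR-FRET.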

[2] = target: T1, Ba/F3-FGFR1-transfected cells (Homo sapiens, UniProt P11362); test: Ba/F3-FGFR1 (minus IL3) cellular proliferation assay, Alamar Blue; format: cell-based
T1 construct: BAF3-FGFR1 (MIN IL3) pIC50; other: minus IL3
In short: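 Ba/F3-FGFR1 cells (20000 per well) were exposed to compound for 24 h at 37 °C in RPMI-1640 with 10% FBS. Alamar Blue (resazurin) was then added for 4 h, and fluorescence was read at ex 540/em 590 nm.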

[3] = tested on: Ba/F3-FGFR1-transfected cells; test: Ba/F3-FGFR1 (plus IL3) cellular proliferation assay, counterscreen with 10 ng/ml murine IL3; format: cell-based; settings: plus IL3 (10 ng/ml murine IL3, counterscreen); read-out: BAF3-FGFR1 (PLUS IL3) pIC50 (converted)
In short: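 Proliferation read-out: resazurin-based Alamar Blue fluorescence (540/590 nm) after 4 h, following 24 h compound treatment of 20000 Ba/F3-FGFR1 cells per well in 10% FBS RPMI at 37° C. IL3 counterscreen used the same protocol plus 10 ng/ml murine IL3.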

[4] = tested on: Ba/F3-FGFR3-transfected cells; test: Ba/F3-FGFR3 (plus IL3) cellular proliferation assay, counterscreen with 10 ng/ml murine IL3; format: cell-based; settings: plus IL3 (10 ng/ml murine IL3, counterscreen); read-out: BAF3-FGFR3 (PLUS IL3) pIC50 (converted)
In short: (§1)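 Ba/F3 cells transfected with FGFR3, 20000/well in phenol red-free RPMI-1640 with 10% FBS, exposed to compound for 24 h at 37 °C, 5% CO2. Alamar Blue (resazurin) added for 4 h more; fluorescence read at ex 540/em 590 nm. Counterscreen run the same way with 10 ng/ml murine IL3.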

[5] = target: T2, Ba/F3-FGFR3-transfected cells (Homo sapiens, UniProt P22607); test: Ba/F3-FGFR3 (minus IL3) cellular proliferation assay, Alamar Blue; format: cell-based
T2 construct: BAF3-FGFR3 (MIN IL3) pIC50; other: minus IL3
In short: as §1

[6] = target: FGFR3 (h) (Homo sapiens, UniProt P22607); test: FGFR3 (enzymatic assay), TR-FRET; format: biochemical; settings: read-out: FGFR 3 pIC50 (converted)
Text: Time-Resolved Fluorescence Resonance Energy Transfer (TR-FRET) signal (ex340 nm.

[7] = target: T3, Ba/F3-KDR-transfected cells (Homo sapiens, UniProt P35968); test: Ba/F3-KDR (minus IL3) cellular proliferation assay, Alamar Blue; format: cell-based
T3 construct: BAF3-KDR (MIN IL3) pIC50; other: minus IL3
In short: (§2)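 Compound in DMSO was dispensed first, then transfected cells in serum-containing RPMI-1640 were added. After a 24 h incubation, viability was gauged by resazurin reduction over 4 h, measured as fluorescence.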

[8] = tested on: Ba/F3-KDR-transfected cells; test: Ba/F3-KDR (plus IL3) cellular proliferation assay, counterscreen with 10 ng/ml murine IL3; format: cell-based; settings: plus IL3 (10 ng/ml murine IL3, counterscreen); read-out: BAF3-KDR (PLUS IL3) pIC50 (converted)
In short: as §2

Sequence of KDR (h) (P35968 20-1356): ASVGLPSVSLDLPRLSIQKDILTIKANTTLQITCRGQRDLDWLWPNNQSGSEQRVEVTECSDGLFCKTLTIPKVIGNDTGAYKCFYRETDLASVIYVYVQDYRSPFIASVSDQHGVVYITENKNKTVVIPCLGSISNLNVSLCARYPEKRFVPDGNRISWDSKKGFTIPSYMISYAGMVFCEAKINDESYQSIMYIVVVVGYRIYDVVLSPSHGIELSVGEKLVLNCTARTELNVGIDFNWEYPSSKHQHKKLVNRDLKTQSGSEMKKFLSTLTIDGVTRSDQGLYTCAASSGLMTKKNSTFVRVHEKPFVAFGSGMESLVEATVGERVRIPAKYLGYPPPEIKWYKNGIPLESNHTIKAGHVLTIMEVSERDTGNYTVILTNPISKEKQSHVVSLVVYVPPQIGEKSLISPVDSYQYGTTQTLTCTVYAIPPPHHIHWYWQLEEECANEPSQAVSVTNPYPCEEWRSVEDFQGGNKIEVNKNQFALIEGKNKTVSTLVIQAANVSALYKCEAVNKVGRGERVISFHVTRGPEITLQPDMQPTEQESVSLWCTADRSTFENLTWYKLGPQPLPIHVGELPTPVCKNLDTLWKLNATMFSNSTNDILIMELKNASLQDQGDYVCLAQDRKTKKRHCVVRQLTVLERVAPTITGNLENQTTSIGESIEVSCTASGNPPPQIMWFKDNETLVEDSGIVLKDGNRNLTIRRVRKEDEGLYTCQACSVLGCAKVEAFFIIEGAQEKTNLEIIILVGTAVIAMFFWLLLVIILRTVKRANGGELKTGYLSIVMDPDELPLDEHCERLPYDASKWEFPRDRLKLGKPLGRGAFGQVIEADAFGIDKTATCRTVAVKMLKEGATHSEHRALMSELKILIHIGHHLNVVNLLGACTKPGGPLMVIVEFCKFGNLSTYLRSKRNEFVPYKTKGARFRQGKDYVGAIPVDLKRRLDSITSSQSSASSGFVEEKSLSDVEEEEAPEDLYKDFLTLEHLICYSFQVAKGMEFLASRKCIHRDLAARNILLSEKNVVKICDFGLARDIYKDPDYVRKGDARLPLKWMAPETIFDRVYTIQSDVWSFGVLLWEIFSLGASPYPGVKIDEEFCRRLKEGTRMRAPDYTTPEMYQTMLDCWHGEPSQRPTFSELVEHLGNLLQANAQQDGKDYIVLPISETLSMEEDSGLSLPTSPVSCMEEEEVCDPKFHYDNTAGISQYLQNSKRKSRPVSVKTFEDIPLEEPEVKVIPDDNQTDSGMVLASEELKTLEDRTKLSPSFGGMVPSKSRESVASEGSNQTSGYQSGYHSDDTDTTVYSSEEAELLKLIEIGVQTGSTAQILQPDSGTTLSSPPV
T2 sequence (P22607 whole entry, change not shown): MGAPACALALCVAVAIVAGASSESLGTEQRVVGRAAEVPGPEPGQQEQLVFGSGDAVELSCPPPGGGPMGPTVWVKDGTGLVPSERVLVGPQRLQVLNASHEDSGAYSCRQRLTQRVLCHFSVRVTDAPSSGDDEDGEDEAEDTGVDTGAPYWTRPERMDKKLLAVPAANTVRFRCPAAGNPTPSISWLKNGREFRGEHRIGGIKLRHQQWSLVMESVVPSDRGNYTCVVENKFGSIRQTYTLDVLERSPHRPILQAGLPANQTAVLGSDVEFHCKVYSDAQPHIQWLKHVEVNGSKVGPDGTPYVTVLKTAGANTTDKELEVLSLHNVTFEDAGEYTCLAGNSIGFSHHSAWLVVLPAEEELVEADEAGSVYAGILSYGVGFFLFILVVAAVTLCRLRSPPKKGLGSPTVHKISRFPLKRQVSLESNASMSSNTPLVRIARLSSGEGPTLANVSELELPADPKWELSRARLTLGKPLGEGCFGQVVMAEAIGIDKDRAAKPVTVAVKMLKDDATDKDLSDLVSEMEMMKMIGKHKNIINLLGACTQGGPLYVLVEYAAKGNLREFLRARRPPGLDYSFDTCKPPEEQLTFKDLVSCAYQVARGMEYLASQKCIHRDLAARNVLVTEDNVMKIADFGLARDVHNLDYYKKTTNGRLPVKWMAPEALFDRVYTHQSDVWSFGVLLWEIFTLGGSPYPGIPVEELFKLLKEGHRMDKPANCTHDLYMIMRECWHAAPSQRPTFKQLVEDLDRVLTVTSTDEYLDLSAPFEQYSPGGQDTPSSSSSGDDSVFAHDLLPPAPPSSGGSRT
T1 sequence (P11362 whole entry, change not shown): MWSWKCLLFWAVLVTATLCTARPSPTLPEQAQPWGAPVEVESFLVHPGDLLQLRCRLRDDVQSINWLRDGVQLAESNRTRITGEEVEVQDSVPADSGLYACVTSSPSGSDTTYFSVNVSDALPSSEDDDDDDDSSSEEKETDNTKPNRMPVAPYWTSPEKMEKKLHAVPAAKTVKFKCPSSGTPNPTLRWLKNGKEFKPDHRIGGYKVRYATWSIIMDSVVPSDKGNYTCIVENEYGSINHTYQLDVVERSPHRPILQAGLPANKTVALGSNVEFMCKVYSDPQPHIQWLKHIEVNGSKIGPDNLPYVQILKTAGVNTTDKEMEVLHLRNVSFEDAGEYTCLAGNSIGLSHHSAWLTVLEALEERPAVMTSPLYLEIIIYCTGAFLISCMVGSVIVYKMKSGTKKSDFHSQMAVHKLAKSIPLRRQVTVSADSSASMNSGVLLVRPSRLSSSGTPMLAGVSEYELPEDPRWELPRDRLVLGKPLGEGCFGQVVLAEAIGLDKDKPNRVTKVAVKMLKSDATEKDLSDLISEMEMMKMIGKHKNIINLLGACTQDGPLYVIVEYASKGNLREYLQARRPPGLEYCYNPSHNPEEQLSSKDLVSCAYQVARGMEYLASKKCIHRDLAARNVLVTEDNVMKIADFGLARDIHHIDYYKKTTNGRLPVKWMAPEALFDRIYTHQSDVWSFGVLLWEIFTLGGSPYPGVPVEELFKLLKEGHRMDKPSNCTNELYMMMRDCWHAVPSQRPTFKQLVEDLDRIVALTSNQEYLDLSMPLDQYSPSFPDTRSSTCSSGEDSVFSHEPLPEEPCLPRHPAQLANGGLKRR
Sequence of FGFR3 (h) (P22607 23-806): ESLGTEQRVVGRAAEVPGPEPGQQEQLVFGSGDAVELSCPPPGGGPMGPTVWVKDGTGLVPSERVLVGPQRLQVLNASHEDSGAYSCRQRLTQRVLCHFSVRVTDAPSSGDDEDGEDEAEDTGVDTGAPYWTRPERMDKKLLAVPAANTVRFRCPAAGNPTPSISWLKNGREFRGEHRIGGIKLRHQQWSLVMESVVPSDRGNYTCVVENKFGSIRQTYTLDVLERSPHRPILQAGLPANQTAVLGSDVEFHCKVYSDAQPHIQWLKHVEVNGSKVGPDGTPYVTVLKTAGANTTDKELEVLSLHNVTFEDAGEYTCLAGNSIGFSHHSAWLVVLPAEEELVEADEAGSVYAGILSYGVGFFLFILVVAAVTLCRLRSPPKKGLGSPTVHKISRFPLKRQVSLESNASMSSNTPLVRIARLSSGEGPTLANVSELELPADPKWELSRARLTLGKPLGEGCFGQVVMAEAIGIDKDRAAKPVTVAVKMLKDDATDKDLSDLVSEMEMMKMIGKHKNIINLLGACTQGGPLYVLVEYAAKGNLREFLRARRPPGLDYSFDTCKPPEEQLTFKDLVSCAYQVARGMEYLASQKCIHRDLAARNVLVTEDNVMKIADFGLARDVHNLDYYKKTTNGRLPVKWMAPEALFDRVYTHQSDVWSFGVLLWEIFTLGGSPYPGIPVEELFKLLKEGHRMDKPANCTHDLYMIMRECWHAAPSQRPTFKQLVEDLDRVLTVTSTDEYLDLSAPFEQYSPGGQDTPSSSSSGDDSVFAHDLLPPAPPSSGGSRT
T3 sequence (P35968 whole entry, change not shown): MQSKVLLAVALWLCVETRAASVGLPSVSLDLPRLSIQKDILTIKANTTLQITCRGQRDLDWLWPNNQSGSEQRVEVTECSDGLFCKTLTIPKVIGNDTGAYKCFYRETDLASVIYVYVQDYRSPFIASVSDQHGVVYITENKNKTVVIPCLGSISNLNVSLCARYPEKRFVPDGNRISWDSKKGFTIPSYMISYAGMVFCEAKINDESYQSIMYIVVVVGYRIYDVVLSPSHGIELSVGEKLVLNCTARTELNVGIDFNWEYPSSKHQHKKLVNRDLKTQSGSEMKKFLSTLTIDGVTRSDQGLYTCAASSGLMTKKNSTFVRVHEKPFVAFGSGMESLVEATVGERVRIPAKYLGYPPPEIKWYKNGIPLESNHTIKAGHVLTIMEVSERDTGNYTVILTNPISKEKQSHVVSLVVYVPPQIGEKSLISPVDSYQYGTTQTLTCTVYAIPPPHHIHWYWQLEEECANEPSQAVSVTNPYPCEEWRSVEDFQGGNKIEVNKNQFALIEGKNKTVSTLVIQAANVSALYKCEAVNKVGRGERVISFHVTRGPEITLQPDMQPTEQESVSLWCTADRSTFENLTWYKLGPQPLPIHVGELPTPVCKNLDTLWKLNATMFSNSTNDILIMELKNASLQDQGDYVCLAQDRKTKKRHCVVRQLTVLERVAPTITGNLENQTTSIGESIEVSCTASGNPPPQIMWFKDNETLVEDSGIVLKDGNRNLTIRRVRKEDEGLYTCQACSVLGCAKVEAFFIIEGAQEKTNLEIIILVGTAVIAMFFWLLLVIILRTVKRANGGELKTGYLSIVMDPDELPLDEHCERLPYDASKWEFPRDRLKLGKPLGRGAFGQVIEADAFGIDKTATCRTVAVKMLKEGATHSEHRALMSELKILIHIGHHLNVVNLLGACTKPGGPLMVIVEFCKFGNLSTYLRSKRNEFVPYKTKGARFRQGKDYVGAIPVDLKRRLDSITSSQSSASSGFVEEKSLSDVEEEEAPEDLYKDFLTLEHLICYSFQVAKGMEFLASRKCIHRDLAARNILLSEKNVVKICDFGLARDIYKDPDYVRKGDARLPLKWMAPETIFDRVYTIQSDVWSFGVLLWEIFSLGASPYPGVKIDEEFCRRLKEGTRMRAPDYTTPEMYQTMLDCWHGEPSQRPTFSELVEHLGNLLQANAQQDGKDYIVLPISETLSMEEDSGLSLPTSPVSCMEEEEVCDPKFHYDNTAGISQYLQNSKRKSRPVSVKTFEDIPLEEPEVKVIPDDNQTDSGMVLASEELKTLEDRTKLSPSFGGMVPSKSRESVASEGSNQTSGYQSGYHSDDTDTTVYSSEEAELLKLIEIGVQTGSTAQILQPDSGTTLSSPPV

Row | Structure (SMILES) | IC50 [1] [nM] | BAF3-FGFR1 (MIN IL3) pIC50 [2] | IC50 [3] [µM] | IC50 [4] [µM] | BAF3-FGFR3 (MIN IL3) pIC50 [5] | IC50 [6] [nM] | BAF3-KDR (MIN IL3) pIC50 [7] | IC50 [8] [µM]
1 | COc1cc(OC)c(F)c(N(CCN2CCOCC2)c2ccc3ncc(-c4cnn(C)c4)nc3n2)c1 [Compound 149] | 15.5 | 7.45 | > 10 | > 10 | ~7.66 | 2.63 | 5.89 | > 10
2 | COc1cc(OC)c(F)c(N(Cc2ncc[nH]2)c2ccc3ncc(-c4cnn(C(CO)CCl)c4)nc3n2)c1 (stereo not shown) [Compound 209] | 7.59 | 8.71 | > 10 | > 10 | 8.25 | 1.32 | 6.57 | > 10
3 | COc1cc(/N=c2\ccc3ncc(-c4cnn(C)c4)nc3n2CC2CCCOC2)cc(OC)c1 (stereo not shown) [Compound 165] | 6.31 | 7.38 | > 10 | > 10 | 7.32 | 1.12 | 6.30 | > 10
4 | COc1cc(OC)c(F)c(N(Cc2cnn(C)c2)c2ccc3ncc(-c4cnn(C)c4)nc3n2)c1 [Compound 195] | 11.5 | 8.08 | > 10 | > 10 | 8.09 | 0.871 | 5.79 | > 10
5 | COc1cc(OC)cc(N(Cc2nncn2CCO)c2ccc3ncc(-c4cnn(C)c4)nc3n2)c1 [Compound 204] | 302 | 6.15 | > 10 | > 10 | 6.09 | 15.1 | <5 | > 10
6 | COc1cc(OC)cc(N(Cc2ncc[nH]2)c2ccc3ncc(-c4ccn(C)c4)nc3n2)c1 [Compound 198] | 4.57 | 8.48 | > 10 | > 10 | ~8.15 | 0.646 | 6.68 | > 10
7 | COc1cc(OC)c(F)c(N(Cc2ncc[nH]2)c2ccc3ncc(-c4cnn(CC(C)(C)O)c4)nc3n2)c1 [Compound 240] | 15.5 | 8.57 | > 10 | > 10 | ~8.52 | 1.82 | 6.89 | > 10
8 | COc1cc(OC)c(F)c(N(Cc2ncc[nH]2)c2ccc3ncc(-c4cccnc4)nc3n2)c1 [Compound 190a] | 28.8 | 7.94 | > 10 | > 10 | 7.72 | 2 | 5.82 | > 10
9 | COc1cc(OC)c(F)c(N(Cc2nc(OC)cc(OC)n2)c2ccc3ncc(-c4cnn(C)c4)nc3n2)c1 [Compound 220] | 50.1 | 6.32 | > 10 | > 10 | 5.91 | 9.33 | 5.22 | > 10
10 | COc1cc(OC)cc(N(Cc2nnc(N)o2)c2ccc3ncc(-c4cnn(C)c4)nc3n2)c1 [Compound 188] | 33.9 | 6.78 | > 10 | > 10 | ~7.15 | 0.933 | 5.63 | > 10
11 | COc1cc(OC)cc(N(Cc2ncc[nH]2)c2ccc3ncc(-c4cnn(C5CCNCC5)c4)nc3n2)c1 [Compound 227] | 12 | 7.73 | > 10 | > 10 | 7.63 | 0.891 | 5.79 | > 10
